Laboratory results from patent US20190202799A1, “IMIDAZOLE DERIVATIVES AND THEIR USE IN THE TREATMENT OF AUTOIMMUNE OR INFLAMMATORY DISEASES OR CANCERS” (GLAXOSMITHKLINE INTELLECTUAL PROPERTY (No.2) LIMITED, priority 2016, published 2019).

Test system: MCP-1 production
Test: LPS induced MCP-1 production from human whole blood
Assay type: cell-based
Conditions: LPS 200 ng/mL, 18-24 hours, read-out: mean pIC50, LPS induced MCP-1 production (converted)
Protocol: Activation of monocytic cells by agonists of toll-like receptors such as bacterial lipopolysaccharide (LPS) results in production of key inflammatory mediators including MCP-1. Such pathways are widely considered to be central to the pathophysiology of a range of auto-immune and inflammatory disorders.
Blood is collected in a tube containing Sodium heparin (Leo Pharmaceuticals) (10 units of heparin/mL of blood). 96-well compound plates containing 0.5 μL test sample (compound) in 100% DMSO were prepared (two replicates on account of donor variability). 130 μL of whole blood was dispensed into each well of the 96-well compound plates and incubated for 30 min at 37° C., 5% CO2. 10 μL of lipopolysaccharide (from Salmonella typhosa; L6386) made up in PBS (200 ng/mL final assay concentration) was added to each well of the compound plates. The plates were then placed in the humidified primary cell incubator for 18-24 hours at 37° C., 5% CO2. 140 μL of PBS was added to all wells of the compound plates containing blood. The plates were then sealed and centrifuged for 10 mins at 2500 rpm (r.t). […] 150 μL of 2×MSD Read Buffer T (stock 4×MSD Read Buffer T was diluted 50:50 with de-ionised water) was then added to each well and the plates read on the MSD Sector Imager 6000. Concentration response curves for each compound were generated from the data and an IC50 value was calculated.

SMILES: Cc1cc(-c2nc(C(=O)O)cn2Cc2ccccc2)cn(C)c1=O [Example 34, 1-benzyl-2-(1,5-dimethyl-6-oxo-1,6-dihydropyridin-3-yl)-1H-imidazole-4-carboxylic acid]
- IC50: > 20 µM
